# Experimental data from publication PMC1069517 (Nucleic Acids Research, 2005).
# T1: a/eIF2 β–γ dimer (Saccharolobus solfataricus, UniProt Q980A5)
# T1 sequence (Q980A5 1-415): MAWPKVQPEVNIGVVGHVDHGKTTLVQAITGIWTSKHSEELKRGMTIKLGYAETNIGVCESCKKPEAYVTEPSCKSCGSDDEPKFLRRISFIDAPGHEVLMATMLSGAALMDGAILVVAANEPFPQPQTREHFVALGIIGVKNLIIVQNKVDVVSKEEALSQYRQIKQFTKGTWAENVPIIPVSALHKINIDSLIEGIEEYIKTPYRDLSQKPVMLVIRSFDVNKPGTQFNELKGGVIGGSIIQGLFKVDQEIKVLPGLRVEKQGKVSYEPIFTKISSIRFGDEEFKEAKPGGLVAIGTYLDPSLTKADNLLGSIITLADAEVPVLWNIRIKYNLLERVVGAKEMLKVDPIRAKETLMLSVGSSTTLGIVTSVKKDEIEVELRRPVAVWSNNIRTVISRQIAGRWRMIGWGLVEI
# T1 sequence (Q97W59 1-139 partner): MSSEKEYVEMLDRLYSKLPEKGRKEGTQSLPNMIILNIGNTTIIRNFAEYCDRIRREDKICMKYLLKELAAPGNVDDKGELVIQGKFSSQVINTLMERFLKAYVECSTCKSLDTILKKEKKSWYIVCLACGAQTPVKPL
# T2: a/eIF2 α–γ dimer (Saccharolobus solfataricus, UniProt Q980A5)
# T2 sequence (Q980A5 1-415): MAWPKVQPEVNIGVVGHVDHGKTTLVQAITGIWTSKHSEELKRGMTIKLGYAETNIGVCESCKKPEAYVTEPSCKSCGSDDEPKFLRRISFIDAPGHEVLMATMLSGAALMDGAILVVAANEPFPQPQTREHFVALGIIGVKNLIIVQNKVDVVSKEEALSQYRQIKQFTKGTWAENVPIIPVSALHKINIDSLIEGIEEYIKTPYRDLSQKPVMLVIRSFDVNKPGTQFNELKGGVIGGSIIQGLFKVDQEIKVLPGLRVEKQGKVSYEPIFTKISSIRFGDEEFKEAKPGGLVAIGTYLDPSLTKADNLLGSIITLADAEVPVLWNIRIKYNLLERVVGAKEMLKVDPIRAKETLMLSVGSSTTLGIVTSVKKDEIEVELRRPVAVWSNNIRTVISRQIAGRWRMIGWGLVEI
# T2 sequence (Q97Z79 1-266 partner): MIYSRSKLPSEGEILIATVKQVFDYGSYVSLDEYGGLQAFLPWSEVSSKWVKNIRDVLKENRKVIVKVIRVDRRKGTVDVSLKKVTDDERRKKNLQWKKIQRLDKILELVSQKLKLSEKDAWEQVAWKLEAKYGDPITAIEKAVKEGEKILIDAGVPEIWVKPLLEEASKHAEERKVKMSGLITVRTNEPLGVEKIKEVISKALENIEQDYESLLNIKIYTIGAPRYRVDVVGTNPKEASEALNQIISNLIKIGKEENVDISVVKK
# T3: a/eIF2 alpha subunit;a/eIF2 gamma subunit (Saccharolobus (Sulfolobus) …, UniProt Q97Z79;Q980A5 1-266;1-415, |)
# T3 sequence 1: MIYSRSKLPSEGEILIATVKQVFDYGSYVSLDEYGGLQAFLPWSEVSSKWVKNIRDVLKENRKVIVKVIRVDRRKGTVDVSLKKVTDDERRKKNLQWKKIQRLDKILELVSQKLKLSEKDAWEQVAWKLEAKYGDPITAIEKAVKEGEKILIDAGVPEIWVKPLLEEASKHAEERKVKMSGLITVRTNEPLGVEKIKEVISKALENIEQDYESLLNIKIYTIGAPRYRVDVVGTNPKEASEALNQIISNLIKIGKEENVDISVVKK
# T3 sequence 2: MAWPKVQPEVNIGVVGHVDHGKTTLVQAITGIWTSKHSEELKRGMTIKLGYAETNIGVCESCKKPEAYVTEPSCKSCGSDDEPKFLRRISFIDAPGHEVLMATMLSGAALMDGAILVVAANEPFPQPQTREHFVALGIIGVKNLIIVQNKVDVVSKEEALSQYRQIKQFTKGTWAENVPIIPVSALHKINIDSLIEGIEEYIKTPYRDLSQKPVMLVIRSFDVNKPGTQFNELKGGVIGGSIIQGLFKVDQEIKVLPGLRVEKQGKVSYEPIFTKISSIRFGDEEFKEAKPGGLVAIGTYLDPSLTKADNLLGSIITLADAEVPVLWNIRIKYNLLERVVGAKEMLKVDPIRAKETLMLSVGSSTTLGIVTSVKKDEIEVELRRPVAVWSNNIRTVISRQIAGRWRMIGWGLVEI
# T4: a/eIF2 alpha subunit;a/eIF2 beta subunit;a/eIF2 gamma subunit (Saccharolobus (Sulfolobus) …, UniProt Q97Z79;Q97W59;Q980A5 1-266;1-139;1-415, ||)
# T4 sequence 1: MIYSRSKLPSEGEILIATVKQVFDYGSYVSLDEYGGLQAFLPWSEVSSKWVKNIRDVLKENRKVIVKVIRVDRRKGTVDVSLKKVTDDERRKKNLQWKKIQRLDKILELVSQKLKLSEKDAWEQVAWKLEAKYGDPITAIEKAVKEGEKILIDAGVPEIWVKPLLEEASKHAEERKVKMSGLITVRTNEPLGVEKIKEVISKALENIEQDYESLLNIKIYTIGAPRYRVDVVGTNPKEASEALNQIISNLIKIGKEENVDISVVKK
# T4 sequence 2: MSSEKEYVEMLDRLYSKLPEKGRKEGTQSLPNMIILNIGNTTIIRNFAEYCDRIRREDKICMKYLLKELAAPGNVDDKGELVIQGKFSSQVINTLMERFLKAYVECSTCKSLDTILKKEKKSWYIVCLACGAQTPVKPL
# T4 sequence 3: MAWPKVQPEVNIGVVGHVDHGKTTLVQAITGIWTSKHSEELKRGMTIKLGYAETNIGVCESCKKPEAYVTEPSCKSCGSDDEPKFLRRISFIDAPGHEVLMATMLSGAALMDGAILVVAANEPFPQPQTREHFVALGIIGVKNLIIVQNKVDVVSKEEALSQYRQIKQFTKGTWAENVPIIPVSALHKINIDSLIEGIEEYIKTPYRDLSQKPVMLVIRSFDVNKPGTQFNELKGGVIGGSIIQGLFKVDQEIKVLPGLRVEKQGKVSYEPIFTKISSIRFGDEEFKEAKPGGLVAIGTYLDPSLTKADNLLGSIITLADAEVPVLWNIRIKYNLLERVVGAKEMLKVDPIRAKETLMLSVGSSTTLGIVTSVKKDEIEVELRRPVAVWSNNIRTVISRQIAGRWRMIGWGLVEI
# Legend:
# [1] = molecular target: T1, a/eIF2 β–γ dimer; test: nitrocellulose filter binding; conditions: 65 °C, 30 mM KCl, 50 mM HEPES pH 7.5, 0.5 mM MgCl2, 1 mM DTT; labelled compound
# [2] = molecular target: T2, a/eIF2 α–γ dimer; test: nitrocellulose filter binding; conditions: 65 °C, 30 mM KCl, 50 mM HEPES pH 7.5, 0.5 mM MgCl2, 1 mM DTT; labelled compound
# [3] = molecular target: T3, a/eIF2 alpha subunit;a/eIF2 gamma …; test: filter binding
# [4] = molecular target: T4, a/eIF2 alpha subunit;a/eIF2 beta …; test: filter binding
Molecule,nitrocellulose filter binding [1],nitrocellulose filter binding [2],binding result [3],binding result [4]
Nc1nc2c(ncn2[C@@H]2O[C@H](COP(=O)(O)OP(=O)(O)O)[C@@H](O)[C@H]2O)c(=O)[nH]1 [GDP],displayed GDP and GTP binding curves essentially overlapping with those obtained with the γ-subunit alone,displayed GDP and GTP binding curves essentially overlapping with those obtained with the γ-subunit alone,,
Nc1nc2c(ncn2[C@@H]2O[C@H](COP(=O)(O)OP(=O)(O)OP(=O)(O)O)[C@@H](O)[C@H]2O)c(=O)[nH]1 [GTP],displayed GDP and GTP binding curves essentially overlapping with those obtained with the γ-subunit alone,displayed GDP and GTP binding curves essentially overlapping with those obtained with the γ-subunit alone,,
"[35S]Met-tRNAi (structured_RNA, 3' aminoacylated with methionine; no base modifications (in vitro transcript)) RNA: AGCGGGGUGGGCUAGCCUGGUAAGGCCGCGGGGCUCAUAACCCCGAGGUCCCUGGUUCAAAUCCAGGCCCCGCUACCA",,,binds,binds
